Laboratory results as given in patent US9096591B2, “Tetracyclic compounds” (Medivation Technologies, Inc., priority 2007, dated 2015).
Like-named read-outs stand apart in the source and are kept apart here.

Tests used:
[1] = biological target: T1, human recombinant histamine H1 receptor (Homo sapiens, UniProt P35367); assay: Histamine H1 radioligand binding ([3H]Pyrilamine)
T1 construct: expressed in transfected cells; host or cells: CHO cells
In short: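 CHO-expressed receptor in modified Tris-HCl buffer (50 mM, pH 7.4; 2 mM MgCl2, 100 mM NaCl, 250 mM sucrose); bound ligand measured after filtration and washing.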

[2] = biological target: T2, human recombinant adrenergic α1D receptor (Homo sapiens, UniProt P25100); assay: Adrenergic α1D radioligand binding ([3H]Prozosin); set-up: Inhibition of ligand binding, Adren. alpha1D: concentration or dose not given beside the values; settings: percent inhibition of specific binding
T2 construct: expressed in transfected cells; host or cells: HEK-293 cells
T2 sequence (P25100 1-572): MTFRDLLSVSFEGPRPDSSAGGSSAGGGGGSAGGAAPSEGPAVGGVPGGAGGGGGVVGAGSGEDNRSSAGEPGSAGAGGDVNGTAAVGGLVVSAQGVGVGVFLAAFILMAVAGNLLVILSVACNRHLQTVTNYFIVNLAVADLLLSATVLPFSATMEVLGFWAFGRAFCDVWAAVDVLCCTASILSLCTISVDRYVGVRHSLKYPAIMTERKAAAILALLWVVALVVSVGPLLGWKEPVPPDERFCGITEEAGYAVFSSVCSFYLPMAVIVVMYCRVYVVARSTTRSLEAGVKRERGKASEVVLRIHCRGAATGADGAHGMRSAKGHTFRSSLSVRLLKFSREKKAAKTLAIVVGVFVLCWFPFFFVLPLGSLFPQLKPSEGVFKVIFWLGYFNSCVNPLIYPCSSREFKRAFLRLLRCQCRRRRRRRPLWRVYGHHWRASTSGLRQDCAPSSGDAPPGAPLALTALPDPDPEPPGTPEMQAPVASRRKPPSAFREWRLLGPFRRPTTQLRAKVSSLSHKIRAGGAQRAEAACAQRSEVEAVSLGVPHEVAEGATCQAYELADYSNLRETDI
Description: Compounds of invention were incubated with 0.6 nM [^3H]Prozosin for 60 minutes at 25° C. Non-specific binding was estimated in the presence of 10 μM phentolamine. Receptor proteins were filtered and washed, the filters were then counted to determine [^3H]Prozosin specifically bound. […] Biochemical assay results are presented as the percent inhibition of specific binding in Table 6.

[3] = biological target: T3, human recombinant adrenergic α2A receptor (Homo sapiens, UniProt P08913); assay: Adrenergic α2A radioligand binding ([3H]MK-912); set-up: Inhibition of ligand binding, Adren. alpha2A: concentration or dose not given beside the values; settings: percent inhibition of specific binding
T3 construct: expressed in transfected cells; host or cells: insect Sf9 cells
T3 sequence (P08913 1-465): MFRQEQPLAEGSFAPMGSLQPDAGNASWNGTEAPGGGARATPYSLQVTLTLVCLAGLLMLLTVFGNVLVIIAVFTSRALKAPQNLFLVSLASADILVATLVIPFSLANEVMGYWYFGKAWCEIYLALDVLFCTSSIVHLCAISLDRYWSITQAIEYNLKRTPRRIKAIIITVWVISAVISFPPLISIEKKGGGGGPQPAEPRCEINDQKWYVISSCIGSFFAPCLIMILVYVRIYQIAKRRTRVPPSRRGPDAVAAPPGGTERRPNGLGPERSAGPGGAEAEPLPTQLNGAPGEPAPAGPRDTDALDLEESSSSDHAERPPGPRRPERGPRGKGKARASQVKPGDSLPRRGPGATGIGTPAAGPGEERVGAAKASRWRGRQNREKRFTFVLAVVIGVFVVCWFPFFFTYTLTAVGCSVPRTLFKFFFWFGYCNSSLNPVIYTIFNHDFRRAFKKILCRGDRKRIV
In short: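 Membranes from Sf9 cells expressing the receptor were incubated with 1 nM [3H]MK-912 for 60 minutes at 25° C in 50 mM Tris-HCl pH 7.4, 12.5 mM MgCl2, 2 mM EDTA. 10 μM WB-4101 defined non-specific binding. Values are percent inhibition of specific bound radioactivity after filtration.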

[4] = percent inhibition of specific binding, screened at 1 μM, read-out: Inhibition of ligand binding, Hist. H1
[5] = read-out: Histamine Binding H1, percent inhibition of specific binding
[6] = read-out: Inhibition of ligand binding, Hist. H1

T1 sequence (P35367 whole entry): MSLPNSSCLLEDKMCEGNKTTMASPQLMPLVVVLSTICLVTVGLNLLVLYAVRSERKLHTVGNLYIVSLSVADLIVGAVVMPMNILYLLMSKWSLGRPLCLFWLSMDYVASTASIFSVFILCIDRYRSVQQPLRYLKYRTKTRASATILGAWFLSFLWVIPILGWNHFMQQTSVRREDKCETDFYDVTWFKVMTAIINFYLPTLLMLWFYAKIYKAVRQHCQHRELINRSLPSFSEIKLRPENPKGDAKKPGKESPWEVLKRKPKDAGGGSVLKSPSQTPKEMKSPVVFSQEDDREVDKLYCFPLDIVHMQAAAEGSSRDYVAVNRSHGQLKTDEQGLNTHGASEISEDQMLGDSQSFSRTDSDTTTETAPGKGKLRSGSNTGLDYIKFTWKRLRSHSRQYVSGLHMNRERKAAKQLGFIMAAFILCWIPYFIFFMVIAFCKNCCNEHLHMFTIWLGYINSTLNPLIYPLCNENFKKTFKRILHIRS

| SMILES | inhibition at 1 µM [1, 4] [%] | Inhibition of ligand binding, Adren. alpha1D [2] [%] | Inhibition of ligand binding, Adren. alpha2A [3] [%] | inhibition at 0.03 µM [1, 5] [%] | inhibition at 0.1 µM [1, 5] [%] | inhibition at 1 µM [1, 5] [%] | inhibition at 1 µM [1, 6] [%] |
| --- | --- | --- | --- | --- | --- | --- | --- |
| Cc1ccc(C(O)Cn2c3c(c4cc(C)ccc42)CN(C)CC3)cc1 (racemic) [Compound 28, racemic-2-(1,2,3,4-tetrahydro-2,8-dimethylpyrido[4,3-b]indol-5-yl)-1-p-tolylethanol] | 85 | 89 | 100 | – | – | – | – |
| CN1CCc2c(c3ccccc3n2CCc2ccccc2)C1 [Compound 2, 2,3,4,5-tetrahydro-2-methyl-5-phenethyl-1H-pyrido[4,3-b]indole] | – | 72 | 94 | 31 | 54 | 87 | 87 |
| Cc1ccc(CCn2c3c(c4cc(Cl)ccc42)CN(C)CC3)cc1 [Compound 43] | 110 | 98 | 100 | – | – | – | – |
| CN1CCc2c(c3cc(Cl)ccc3n2CCc2ccc(Cl)cc2)C1 [Compound 45, 5-(4-chlorophenethyl)-8-chloro-2,3,4,5-tetrahydro-2-methyl-1H-pyrido[4,3-b]indole] | 103 | 92 | 100 | – | – | – | – |
| Cc1ccc(CCn2c3c(c4cc(C(F)(F)F)ccc42)CN(C)CC3)cc1 [Compound 47] | 81 | 81 | 98 | – | – | – | – |
| Cc1ccc2c(c1)c1c(n2CCc2ccc(C)nc2)CCN(C2CC2)C1 [Compound 51] | 94 | 22 | 26 | – | – | – | – |
| Cc1ccc(CCn2c3c(c4cc(C(F)(F)F)ccc42)CN(C)CC3)cn1 [Compound 53] | 43 | 13 | 18 | – | – | – | – |
| CN1CCc2c(c3cc(Cl)ccc3n2CCc2cccnc2)C1 [Compound 55] | 101 | 84 | 86 | – | – | – | – |
| CN1CCc2c(c3cc(Cl)ccc3n2CCc2ccncc2)C1 [Compound 56] | 100 | 91 | 95 | – | – | – | – |
| Cc1ccc2c(c1)c1c(n2CCc2cccnc2)CCN(C)C1 [Compound 60] | 101 | 82 | 84 | – | – | – | – |
| Cc1ccc2c(c1)c1c(n2CCc2cnccn2)CCN(C)C1 [Compound 62] | 93 | 51 | 51 | – | – | – | – |
| Cc1ccc2c(c1)c1c(n2CCc2ccc(C(F)(F)F)nc2)CCN(C)C1 [Compound 68] | 99 | 98 | 94 | – | – | – | – |
| CN1CCc2c(c3cc(C(F)(F)F)ccc3n2CCc2ccccc2)C1 [Compound 80, 8-(trifluoromethyl)-2,3,4,5-tetrahydro-2-methyl-5-phenethyl-1H-pyrido[4,3-b]indole] | 89 | 75 | 98 | – | – | – | – |
| CN1CCc2c(c3c(Cl)cccc3n2CCc2ccccc2)C1 [Compound 81] | 94 | 47 | 96 | – | – | – | – |
| CN1CCc2c(c3ccc(Cl)cc3n2CCc2ccccc2)C1 [Compound 82] | 99 | 64 | 99 | – | – | – | – |
| CN1CCc2c(c3cccc(Cl)c3n2CCc2ccccc2)C1 [Compound 83] | 97 | 92 | 100 | – | – | – | – |
| CN1CCc2c(c3cc(Cl)ccc3n2CCc2ccc(F)cc2)C1 [Compound 162, 5-(4-fluorophenethyl)-8-chloro-2,3,4,5-tetrahydro-2-methyl-1H-pyrido[4,3-b]indole] | 100 | 90 | 99 | – | – | – | – |
| CN1CCc2c(c3cc(Cl)ccc3n2CCC2CCCCC2)C1 [Compound 164, 8-chloro-5-(2-cyclohexylethyl)-2,3,4,5-tetrahydro-2-methyl-1H-pyrido[4,3-b]indole] | 101 | 32 | 95 | – | – | – | – |
| CN1CCc2c(c3cc(Cl)ccc3n2CCN2CCOCC2)C1 [Compound 186, 8-chloro-2,3,4,5-tetrahydro-2-methyl-5-(2-morpholinoethyl)-1H-pyrido[4,3-b]indole] | 97 | 41 | 51 | – | – | – | – |
| CN1CCc2c(c3c(Cl)cccc3n2CCC2CCCCC2)C1 [Compound 187, 9-chloro-5-(2-cyclohexylethyl)-2,3,4,5-tetrahydro-2-methyl-1H-pyrido[4,3-b]indole] | 64 | 15 | 90 | – | – | – | – |
| CN1CCc2c(c3ccc(Cl)cc3n2CCC2CCCCC2)C1 [Compound 188, 7-chloro-5-(2-cyclohexylethyl)-2,3,4,5-tetrahydro-2-methyl-1H-pyrido[4,3-b]indole] | 97 | 8 | 80 | – | – | – | – |
| CN1CCc2c(c3cc(Cl)ccc3n2CCN2CCCCC2)C1 [Compound 189] | 94 | 28 | 76 | – | – | – | – |
| Cc1ccc2c(c1)c1c(n2CCc2ccc(C)nc2)CC(=O)N(C)C1 [Compound 195, 1,2-dihydro-2,8-dimethyl-5-(2-(6-methylpyridin-3-yl)ethyl)-4H-pyrido[4,3-b]indol-3(5H)-one] | 3 | 15 | 4 | – | – | – | – |
| Cc1ccc2c(c1)c1c(n2CCc2ccccc2)CC(O)N(C)C1=O (stereo not shown) [Compound 215, 3,4-dihydro-3-hydroxy-2,8-dimethyl-5-phenethyl-2H-pyrido[4,3-b]indol-1(5H)-one] | – | −5 | 23 | – | – | – | -2 |
| Cc1ccc2c(c1)c1c(n2CCc2ccc(C)nc2)CCN(C)C1=O [Compound 216] | – | −7 | 15 | – | – | 6 | 6 |
| Cc1ccc2c(c1)c1c(n2CCN2CCCCC2)CCN(C)C1 [Compound 224, 2,3,4,5-tetrahydro-2,8-dimethyl-5-(2-(piperidin-1-yl)ethyl)-1H-pyrido[4,3-b]indole] | 56 | 22 | 57 | – | – | – | – |
| Cc1ccc(CCn2c3c(c4cc(Cl)ccc42)CN(C)CC3)cn1 [Compound 225, 8-chloro-2,3,4,5-tetrahydro-2-methyl-5-(2-(6-methylpyridin-3-yl)ethyl)-1H-pyrido[4,3-b]indole] | – | 86 | 91 | – | – | – | 101 |
| Cc1ccc2c(c1)c1c(n2CCc2ccccc2)CCN(C(=O)OCC(Cl)(Cl)Cl)C1 [Compound 227, 2,2,2-trichloroethyl 3,4-dihydro-8-methyl-5-phenethyl-1H-pyrido[4,3-b]indole-2(5H)-carboxylate] | -5 | 11 | 0 | – | – | – | – |
